The target of the experiment is T1, human α-synuclein (Homo sapiens, UniProt P37840).
T1 construct: the full-length gene for untagged human α-synuclein was inserted; made in house; host or cells: E. coli BL21(DE3), plasmid derived from pT7 or pET11a
Put plainly: Cell-free Thioflavin T assay of α-synuclein aggregation (αSyn ThT Assay). Format: biochemical. The settings on record: αSyn 50 μM, compounds at 100 μM. In short, it runs like this:
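Untagged full-length human α-synuclein from E. coli, 50 μM, with 20-40 μM ThT, 1% DMSO, compound at 20-100 μM and a glass bead, 37° C. with shaking. Fluorescence (ex 438/em 495 nm) read hourly to 73 h. Compound-only background subtracted and values normalised to vehicle at 36-72 h or final timepoint, giving % inhibition.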

The mark [1] stands for this setting: mean % inhibition of αSyn aggregation relative to DMSO control, read-out: αSyn ThT Assay % Inhibition.
Where [2] appears, read: class symbol, read-out: αSyn ThT Assay % Inhibition (activity range).

As a reminder, the inhibition is the drop in the measured response relative to a control, in per cent.

SMILES strings stand for the structures. Like-named read-outs stand apart in the source and are kept apart here.

Regarding `O=C(O)C1CN(CCCCO)S(=O)(=O)c2c(-c3cccc(C(F)(F)F)c3)c(Cc3cccc4ccccc34)c(NC3CCCC3)c(=O)n21` (centres unmarked) [Compound 121, 7-(cyclopentylamino)-2-(4-hydroxybutyl)-8-(naphthalen-1-ylmethyl)-6-oxo-9-(3-(trifluoromethyl)phenyl)-3,4-dihydro-2H,6H-pyrido[1,2-e][1,2,5]thiadiazine-4-carboxylic acid 1,1-dioxide], the inhibition at 100 µM under setting [1] was 27% and the inhibition at 100 µM under setting [2] fell in the range of 11 to 30%.
The matching figures for `CCCCCN1CC(C(=O)O)n2c(c(-c3cccc(C(F)(F)F)c3)c(Cc3cccc4ccccc34)cc2=O)S1(=O)=O` (racemic) [Compound 025, 8-(naphthalen-1-ylmethyl)-6-oxo-2-pentyl-9-(3-(trifluoromethyl)phenyl)-3,4-dihydro-2H,6H-pyrido[1,2-e][1,2,5]thiadiazine-4-carboxylic acid 1,1-dioxide]: 59% and 31 to 60%.
The matching figures for `CN1CC(C(=O)O)n2c(c(-c3cccc(C(F)(F)F)c3)c(Cc3cccc4ccccc34)c(C(N)=O)c2=O)S1(=O)=O` (centres unmarked) [Compound 109, 7-carbamoyl-2-methyl-8-(naphthalen-1-ylmethyl)-6-oxo-9-(3-(trifluoromethyl)phenyl)-3,4-dihydro-2H,6H-pyrido[1,2-e][1,2,5]thiadiazine-4-carboxylic acid 1,1-dioxide]: 99% and above 60%.
For `O=C(O)[C@@H]1CS(=O)(=O)c2c(-c3cccc(C(F)(F)F)c3)c(Cc3cccc4ccccc34)cc(=O)n21` (single isomer, unassigned) [Compound 010a, 7-(naphthalen-1-ylmethyl)-5-oxo-8-(3-(trifluoromethyl)phenyl)-2,3-dihydro-5H-thiazolo[3,2-a]pyridine-3-carboxylic acid 1,1-dioxide] the same measures were 41% and 31 to 60%.
Turning to `CN1CC(C(=O)O)n2c1c(-c1cccc(C(F)(F)F)c1)c(Cc1cccc3ccccc13)c(Br)c2=O` (centres unmarked) [Compound 119, 6-bromo-1-methyl-7-(naphthalen-1-ylmethyl)-5-oxo-8-(3-(trifluoromethyl)phenyl)-1,2,3,5-tetrahydroimidazo[1,2-a]pyridine-3-carboxylic acid], the inhibition at 100 µM reads like this: under setting [1], 41%; under setting [2], 31 to 60%.
For `CN1CC(C(N)=O)n2c(c(-c3cccc(C(F)(F)F)c3)c(Cc3cccc4ccccc34)cc2=O)S1(=O)=O` (centres unmarked) [Compound 030, 2-methyl-8-(naphthalen-1-ylmethyl)-6-oxo-9-(3-(trifluoromethyl)phenyl)-3,4-dihydro-2H,6H-pyrido[1,2-e][1,2,5]thiadiazine-4-carboxamide 1,1-dioxide] the same measures were 4% and -10 to 10%.
For `O=C(O)C1C[S+]([O-])c2c(-c3cccc(C(F)(F)F)c3)c(Cc3cccc4ccccc34)cc(=O)n21` (racemic) [Compound 027b, 7-(naphthalen-1-ylmethyl)-5-oxo-8-(3-(trifluoromethyl)phenyl)-2,3-dihydro-5H-thiazolo[3,2-a]pyridine-3-carboxylic acid 1-oxide] the same measures were 4% and -10 to 10%.

These data come from patent US20230131899A1, “INHIBITORS OF MICROBIALLY INDUCED AMYLOID” (Axial Therapeutics, Inc., priority 2020, published 2023).
